In patent US8344115B2, “Immunoassay for specific determination of S-adenosylmethionine and analogs thereof in biological samples” (priority 2008, dated 2013) one finds OD450 data, which are given here for 3 compounds.

For this experiment, the system named is Rabbit antiserum (raised against AdaM-BSA). The experiment is described as follows: Assay 1: end point competitive ELISA with rabbit antibody and antibody specificity (goat anti-rabbit strips, AdaM-HRP conjugate). The class given is binding. The following applies: rabbit antiserum 1:12,500, duplicate. On the procedure: New Zealand White rabbits were used for polyclonal antibody production. Immunization (1 ml total volume) was carried out with subcutaneous injections at multiple sites. Initial injection utilizes 1:1 mixture of complete Freund Adjuvant and AdaM-BSA conjugate solution in PBS upon emulsification. Subsequent injections use incomplete Freund adjuvant. The immunization was on 21 days cycle schedule, the animals were bleed from the ear artery (rabbit sedated) between 7 to 14 days after injection, normally on the 10th day. The blood was then processed to serum via centrifugation to remove red blood cells and clots. Immune response was detected after three booster injections. See FIG. 1 for a typical positive antibody response (indicated by antibody titer determination) wherein NA005 and 006 are animal designation numbers, 0 represents pre-bleed, 1 represents the first bleed after 4 immunizations.
4-1. Assay 1 Assay (End Point) with Rabbit Antibody and Antibody Specificity
• 1. Goat anti-rabbit coated microtiter well strips. • 2. —Rabbit antiserum diluted in incubation buffer (IB: 10 mM phosphate, 150 mM NaCl, 0.2% BSA, 0.1% Tween 20, 0.1% Proclin, pH 7.4) • 3. An IB+Tris (100 mM) buffer, pH 8.5 • 4. Samples: • (a) SAMe toluenesulfonate (tosylate) disulfate at concentration from […] to 1.4×10^−5 M in IB containing BSA 0.5%, and use 0.5% BSA-IB as zero sample. • (b) SAH at concentration from zero and 1.4×10^−8 to 1.4×10^−4 M. • (c) Adenosine at concentration from zero and 5.6×10^−9 M. to 5.6×10^−5 M • (d) Guanosine at concentration from zero and 3.0×10^−9 M to 3.0×10^−5 M • 5. AdaM-HRP conjugate (diluted to HRP concentration @30 μg/mL) in IB. • 6. —HRP substrate: one reagent substrate solution NeA-blue Tetramethylbenzidine Substrate, Clinical Science Products, Inc., Mansfield, Mass. • 7. 1N phosphoric acid Procedure: • 1. —The rabbit antiserum was diluted 1:12,500 in IB and pre-incubated (60 μl/well) in goat-antirabbit coated strips for at least one hour. • 2. Excess antibody was then decanted, washed, and blot dry. • 3. To each well was then added 10 μl of the pH 8.5 IB+Tris buffer followed by 25 μl of samples. The mixture was incubated on a orbital shaker for 25 min. All samples were tested in duplicate except the zero sample, in 6 wells. • 4. Twenty five microliter (25 μl) of AdaM-HRP conjugate solution was then added and incubated for additional 25 min with shaking. • 5. The assay mixture was then decanted, washed, and blot dry. • 6. To each well was added 60 μl/well of HRP substrate and incubate for 15 min. • 7. Stop the substrate development with 120 μl/well of 1N phosphoric acid. • 8. Read OD450 on a Perkin Elmer Lambda (microtiter plate) Reader. Results: (See Table 1 below)

On to `Nc1ncnc2c1ncn2[C@@H]1O[C@H](CO)[C@@H](O)[C@H]1O` [Adenosine], for which the OD450 is reported as 0.256 (sample concentration 5.6E−5 (M)); 0.300 (sample concentration 5.6E−6 (M)); 0.305 (sample concentration 5.6E−7 (M)); 0.339 (sample concentration 5.6E−8 (M)); 0.342 (sample concentration 5.6E−9 (M)).

For the compound `Nc1nc2c(ncn2[C@@H]2O[C@H](CO)[C@@H](O)[C@H]2O)c(=O)[nH]1` [Guanosine], the OD450 runs as follows: (sample concentration 3.0E−5 (M)) 0.371; (sample concentration 3.0E−6 (M)) 0.383; (sample concentration 3.0E−7 (M)) 0.374; (sample concentration 3.0E−8 (M)) 0.324; (sample concentration 3.0E−9 (M)) 0.350.

For `Nc1ncnc2c1ncn2[C@@H]1O[C@H](CSCC[C@H](N)C(=O)O)[C@@H](O)[C@H]1O` [SAH, S-Adenosylhomocysteine], the OD450 reads like this: (sample concentration 1.4E−4 (M)) 0.209; (sample concentration 1.4E−5 (M)) 0.244; (sample concentration 1.4E−6 (M)) 0.293; (sample concentration 1.4E−7 (M)) 0.323; (sample concentration 1.4E−8 (M)) 0.337.
